The values that follow come from patent US4775673A, “Substituted acylpiperazinoquinazolines and pharmaceutical compositions containing same” (priority 1983, dated 1988).

Data set [1] has as its system post-synaptic alpha1 -adrenergic receptors. To be noted: prior art; cited from earlier work.
For data set [2] the following is noted: prior art; cited from earlier work.
A further data set relates to hypertension. Particulars: prior art; cited from earlier work.
Data set [3] can be described thus: acute toxicity assay in rats. To be noted: rat, in vivo, iv.
The nature of data set [4]: acute toxicity assay in mice. In kind it is in vivo, mouse. Particulars: mouse, in vivo, iv, mice. The text has this: (§1) Of particular interest in this respect are the compounds of formula I above. The hydrochlorides of these compounds afford up to more than 15% aqueous solutions. […] In addition, the compounds of formula I are extremely non-toxic.
Another data set deals with mice. In words: acute toxicity assay in mice. In kind it is in vivo, mouse. To be noted: acute toxicity assays.
Description: as §1

The next data set has as its system non-anesthesized rabbits. In words: blood pressure reduction in non-anesthetized rabbits. The class given is in vivo, rabbit. How it is done: as §1
(§2) A typical, highly advantageous compound of the invention is the corresponding 2-methyloxypropionyl derivative of formula I, in which n is 0 and both R and R1 are methyl groups. In nonanesthesized (conscious) DOCA-hypertensive rats, this compound in an oral dose of 1 mg/kg elicits a blood pressure reduction of 20%. A dramatic reduction in blood pressure, as much as 40-50%, is observed in the same animals at a dose of 10 mg/kg p.o. Similarly, in non-anesthesized normotensive monkeys (Macaca mulatta), a dose of 3 mg/kg p.o. reduces the blood pressure by 20%. A dose of 25 mg/kg p.o. reduces blood pressure by 35 to 50% for a period of 7 to 9 hours. An intravenous administration of 2.5 mg/kg as a bolus to monkeys reduces blood pressure by 30 to 50% for 1 hour. A similar administration of 10 mg/kg i.v. elicits a blood pressure reduction of 50 to 70% for more then 7 hours. In rabbits anesthesized by pentobarbital, a dose of 25 mg/kg p.o. reduces blood pressure by 20 to 40% for a period of 4 to 5 hours. In non-anesthesized rabbits, a dose as low as 0.1 mg/kg i.v. elicits a transient but significant blood pressure reduction of almost 20%, shortly after administration. […]

For the next data set, the system named is DOCA-hypertensive rats. In words: blood pressure reduction in nonanesthetized (conscious) DOCA-hypertensive rats. In kind it is in vivo, rat. The method, then:
as §1, §2

The subject of data set [5] is normotensive monkeys (Macaca mulatta). In words: blood pressure reduction in non-anesthetized normotensive monkeys. Particulars: for duration of blood pressure reduction: monkeys. In kind it is in vivo. The method, then:
as §1
A typical, highly advantageous compound of the invention is the corresponding 2-methyloxypropionyl derivative of formula I, in which n is 0 and both R and R1 are methyl groups. In nonanesthesized (conscious) DOCA-hypertensive rats, this compound in an oral dose of 1 mg/kg elicits a blood pressure reduction of 20%. A dramatic reduction in blood pressure, as much as 40-50%, is observed in the same animals at a dose of 10 mg/kg p.o. Similarly, in non-anesthesized normotensive monkeys (Macaca mulatta), a dose of 3 mg/kg p.o. reduces the blood pressure by 20%. A dose of 25 mg/kg p.o. reduces blood pressure by 35 to 50% for a period of 7 to 9 hours. An intravenous administration of 2.5 mg/kg as a bolus to monkeys reduces blood pressure by 30 to 50% for 1 hour. A similar administration of 10 mg/kg i.v. elicits a blood pressure reduction of 50 to 70% for more then 7 hours. In rabbits anesthesized by pentobarbital, a dose of 25 mg/kg p.o. reduces blood pressure by 20 to 40% for a period of 4 to 5 hours. In non-anesthesized rabbits, a dose as low as 0.1 mg/kg i.v. elicits a transient but significant blood pressure reduction of almost 20%, shortly after administration. A dose of 1 mg/kg i.v. reduces the blood pressure by 20 to 30% for a period of more than 8 hours.

Counter-ions that a name gives are not always drawn.

`COc1cc2nc(N3CCN(C(=O)c4ccco4)CC3)nc(N)c2cc1OC` [Prazosin, 1-(4-amino-6,7-dimethyoxy2-quinazolinyl)-4-(2-furoyl) piperazine hydrochloride]: the “blocking of post-synaptic alpha1-adrenergic receptors” value in [1] was “blocking the post-synaptic alpha1 -adrenergic receptors”. In [2], the solubility in water result is recorded as “only slightly soluble in water”. For the same compound, the antihypertensive activity entry in the data set with hypertension is given as “highly efficient antihypertensive compound”.
The LD50 is the dose expected to kill half of the subjects tested. Regarding `COc1cc2nc(N3CCN(C(=O)C(C)OC)CC3)nc(N)c2cc1OC` (stereo not shown) [2-methoxypropionyl derivative, 1-(4-amino-6,7-dimethoxy-2-quinazolinyl)-4-(2-methoxyproprionyl)piperazine], the 50% lethal dose (LD50) in [3] turned out to be 440 mg/kg; in data set [4], 360 mg/kg. Also, in the data set on mice, the toxicity entry is “extremely low in toxicity”. Moreover, the blood pressure reduction in the data set on non-anesthesized rabbits (0.1 mg/kg i.v., transient, shortly after administration) is recorded as roughly 20%; in the data set on DOCA-hypertensive rats (1 mg/kg oral) it was 20%; in data set [5] (3 mg/kg p.o., non-anesthetized monkeys), 20%. Also, the “duration of blood pressure reduction” value in the data set with non-anesthesized rabbits (1 mg/kg i.v.) was “more than 8 hours”; in data set [5] (2.5 mg/kg i.v. bolus) it was 1 h; in [5] (10 mg/kg i.v.), greater than 7 h. Also, the “reduction in blood pressure” value in the data set on DOCA-hypertensive rats (10 mg/kg p.o.) is reported as 40-50%.
